Assay [1] concerns the target complex II (succinate:quinone reductase, SQR) (Echinococcus multilocularis, UniProt A0A1Z4EAW8+A0A1Z4EAX0+A0A1Z4EAX1). Description: Succinate:quinone reductase (SQR) activity (complex II) in protoscoleces mitochondrial fraction. The class given is biochemical. The text has this: (§1) Cyst tissues containing E. multilocularis (Nemuro strain) protoscoleces isolated from infected hispid cotton rats, Sigmodon hispidus, were used. The tissues were shredded through a metal mesh (0.5 mm diameter). Then, the tissues were repeatedly suspended and washed with physiological saline in a tall beaker to obtain protoscoleces by exploiting the buoyancy difference between protoscoleces and other tissue ([26]). The obtained protoscoleces were homogenized with a motor-driven homogenizer to prepare the mitochondrial fraction. The homogenate was diluted with mitochondrial preparation buffer (210 mM mannitol, 10 mM sucrose, 1 mM disodium EDTA, and 50 mM Tris-HCl [pH 7.5]) supplemented with 10 mM sodium malonate to 5 times the volume of the original protoscolex homogenate, and then centrifuged at 800 × g for 10 min (4°C) to remove cell debris and nuclei. The supernatant was then centrifuged at 8,000 × g for 10 min (4°C) to obtain the mitochondrial pellet. Next, the pellet was resuspended in mitochondrial preparation buffer (without malonate) and centrifuged at 8,000 × g for 10 min (4°C). The enriched mitochondrial fraction was finally suspended in approximately 0.5 to 1.0 mL of mitochondrial preparation buffer without malonate and frozen at −50°C. The mitochondrial fraction from A. suum was prepared essentially as described previously ([27], [28]).
(§2) NADH:quinone reductase activity (complex I), succinate:quinone reductase activity (complex II), and succinate:cytochrome c reductase activity (complexes II to III) were measured using a UV-3000 spectrophotometer (Shimadzu, Kyoto, Japan) as described previously ([4], [6]). Briefly, all enzyme assays using mitochondrial fractions were performed in 0.5- or 1.0-mL reaction mixtures at 25°C. A freeze/thaw process was performed before the assay to ensure that the mitochondrial membrane was permeable to the solutes. The final mitochondrial protein concentration was 50 μg/mL. NADH:quinone reductase activity was measured in 50 mM potassium phosphate buffer (pH 7.4) containing 2 mM potassium cyanide, KCN (Sigma, St. Louis, MO, USA), and 60 μM decylubiquinone (Sigma). The activity assay was started by the addition of 50 μM NADH (Fujifilm-Wako, Tokyo, Japan) and recorded as the rate of NADH consumption as monitored at 340 nm (ε = 6.2 mM^−1 cm^−1). The reagents used in the SQR activity assay were mixed with the reaction buffer containing 50 mM potassium phosphate (pH 7.4) and 0.1% (wt/vol) sucrose monolaurate (DOJINDO, Kumamoto, Japan). SQR activity was determined by monitoring the change in absorbance of quinone at 278 nm (ε = 15 mM^−1 cm^−1) in the presence of 60 μM decylubiquinone, 2 mM KCN, and the inhibitor. The reaction was initiated by the addition of 10 mM disodium succinate to the mixture. NADH:cytochrome c activity (complex I to III) was measured in the reaction buffer (30 mM potassium phosphate, 1 mM MgCl2, pH 7.5) containing 2 mM KCN, 50 μM cytochrome c (Nacalai Tesque, Kyoto, Japan), and the inhibitor. The assay was performed after the addition of 100 mM malonate to block complex II activity. The reaction was started by adding 50 μM NADH to the mixture, and the enzyme activity was determined by monitoring the change in absorbance of cytochrome c at 550 nm (ε = 19 mM^−1 cm^−1). IC50 values of AF and its derivatives against the specific activities of mitochondrial respiratory enzymes in protoscoleces were determined. The IC50 of each compound was determined by calculating approximation lines from three or more points on either side of the IC50 concentration.

Another assay concerns the target T1, A. suum complex II (Ascaris suum, UniProt O44074+P92506+P92507).
T1 construct: from tissue; host or cells: A. suum mitochondrial fraction
As to the kind of experiment: Complex II activity of A. suum mitochondrial fraction. The class given is biochemical.
Description: as §1, with “Next, the pellet was resuspended in mitochondrial preparation buffer (without malonate) and centrifuged at 8,000 × g for 10 min (4°C). The enriched mitochondrial fraction was finally suspended in approximately 0.5 to 1.0 mL of mitochondrial preparation buffer without malonate and frozen at −50°C. The mitochondrial fraction from A. suum was prepared essentially as described previously ([27], [28]).” left out
NADH:quinone reductase activity (complex I), succinate:quinone reductase activity (complex II), and succinate:cytochrome c reductase activity (complexes II to III) were measured using a UV-3000 spectrophotometer (Shimadzu, Kyoto, Japan) as described previously ([4], [6]). […] NADH:quinone reductase activity was measured in 50 mM potassium phosphate buffer (pH 7.4) containing 2 mM potassium cyanide, KCN (Sigma, St. Louis, MO, USA), and 60 μM decylubiquinone (Sigma). The activity assay was started by the addition of 50 μM NADH (Fujifilm-Wako, Tokyo, Japan) and recorded as the rate of NADH consumption as monitored at 340 nm (ε = 6.2 mM^−1 cm^−1). […] SQR activity was determined by monitoring the change in absorbance of quinone at 278 nm (ε = 15 mM^−1 cm^−1) in the presence of 60 μM decylubiquinone, 2 mM KCN, and the inhibitor. […] NADH:cytochrome c activity (complex I to III) was measured in the reaction buffer (30 mM potassium phosphate, 1 mM MgCl2, pH 7.5) containing 2 mM KCN, 50 μM cytochrome c (Nacalai Tesque, Kyoto, Japan), and the inhibitor. […]

Assay [2] concerns E. multilocularis protoscoleces. Description: Ex vivo culture assay of live protoscoleces, viability by trypan blue exclusion. Type of assay: cell-based, Echinococcus multilocularis. As to conditions: 50 μM; for antiparasitic effect on protoscoleces in culture assay: both anaerobic and aerobic conditions. As for the experimental part:
FIG 5 Viability of E. multilocularis protoscoleces in ex vivo culture assay. The E. multilocularis protoscoleces were treated with ascofuranone (AF) and its derivatives in culture under aerobic and anaerobic conditions (O2 <0.3%). Each compound was added to the culture medium at a final concentration of 50 μM. The control group was supplemented with 0.5% (vol/vol) dimethyl sulfoxide (DMSO). Atovaquone (ATV) was used as positive control and to ensure anaerobic conditions in the culture. The viability of protoscoleces was evaluated by their ability to exclude trypan blue. The data are presented as the mean ± standard deviation (n = 3).
The obtained protoscoleces were cultured in Connaught Medical Research Laboratories 1066 medium (Gibco, Grand Island, NY, USA) containing 0.5% (wt/vol) yeast extract (Difco Laboratories, Detroit, MI, USA), 2 mM L-glutamine (Gibco), 23 mM 4-(2-hydroxyethyl)-1-piperazineethanesulfonic acid, 0.5% (wt/vol) D (+)-glucose, 0.4 mM sodium taurocholate (Wako Pure Chemical Industries, Osaka, Japan), 57 mM sodium hydrogen carbonate, and 100 U/mL penicillin-streptomycin (Gibco). The protoscoleces were observed daily for seven consecutive days, and half of the medium was replaced on day 3. For anaerobic cultures, six-well plates were sealed in plastic containers with oxygen-detecting agents and oxygen scavengers (Aneromeito, Nissui Pharmaceutical, Tokyo, Japan) to keep the oxygen concentration below 0.3% at 37°C. The protoscoleces were treated with AF and its derivatives at a final concentration of 50 μM in the culture medium, and the duration of parasite elimination was investigated. The control group was supplemented with 0.5% (vol/vol) dimethyl sulfoxide (DMSO), and all conditions were assayed in triplicate. We used ATV in a culture assay as positive control and to ensure anaerobic conditions in the culture ([4], [5]). […] The viability of protoscoleces was determined after microscopic observation of more than 170 protoscoleces per well using the trypan blue exclusion test, as described previously ([4], [6], [33]).

Assay [3] concerns the target complex I (NADH:quinone reductase) (Echinococcus multilocularis, UniProt A0A068Y553+A0A068Y9L9+Q9TE76). As to the kind of experiment: NADH:quinone reductase activity (complex I) in protoscoleces mitochondrial fraction. The class given is biochemical. As to conditions: E. multilocularis protoscoleces mitochondria; read-out: IC50 NADH:decyl rhodoquinone reductase (complex I).
Description: as §1
as §2, with “Louis, MO, USA), and 60 μM decylubiquinone (Sigma).” left out, “SQR activity was determined by monitoring the change in absorbance of quinone at 278 nm (ε = 15 mM^−1 cm^−1) in the presence of 60 μM decylubiquinone, 2 mM KCN, and the inhibitor.” left out

Assay [4] concerns the target complex I and III (NADH:cytochrome c reductase) (Echinococcus multilocularis, UniProt Q9TE80). As to the kind of experiment: NADH:cytochrome c reductase activity (complex I to III) in protoscoleces mitochondrial fraction. The class given is biochemical. As to conditions: for IC50: E. multilocularis protoscoleces mitochondria, mean ± SEM, Table 1, read-out: IC50 NADH:cytochrome c reductase (complex I and III).
Description: as §1, §2

Assay [5] has as its target succinate-cytochrome c reductase (complexes II to III) (Echinococcus multilocularis, UniProt Q9TE80). Description: Succinate:cytochrome c reductase activity (complexes II to III). Type of assay: biochemical. As to conditions: read-out: IC50 against succinate-cytochrome c reductase. As for the experimental part: NADH:quinone reductase activity (complex I), succinate:quinone reductase activity (complex II), and succinate:cytochrome c reductase activity (complexes II to III) were measured using a UV-3000 spectrophotometer (Shimadzu, Kyoto, Japan) as described previously ([4], [6]). Briefly, all enzyme assays using mitochondrial fractions were performed in 0.5- or 1.0-mL reaction mixtures at 25°C. A freeze/thaw process was performed before the assay to ensure that the mitochondrial membrane was permeable to the solutes. The final mitochondrial protein concentration was 50 μg/mL. NADH:quinone reductase activity was measured in 50 mM potassium phosphate buffer (pH 7.4) containing 2 mM potassium cyanide, KCN (Sigma, St. Louis, MO, USA), and 60 μM decylubiquinone (Sigma). The activity assay was started by the addition of 50 μM NADH (Fujifilm-Wako, Tokyo, Japan) and recorded as the rate of NADH consumption as monitored at 340 nm (ε = 6.2 mM^−1 cm^−1). […] SQR activity was determined by monitoring the change in absorbance of quinone at 278 nm (ε = 15 mM^−1 cm^−1) in the presence of 60 μM decylubiquinone, 2 mM KCN, and the inhibitor. […] NADH:cytochrome c activity (complex I to III) was measured in the reaction buffer (30 mM potassium phosphate, 1 mM MgCl2, pH 7.5) containing 2 mM KCN, 50 μM cytochrome c (Nacalai Tesque, Kyoto, Japan), and the inhibitor. […]

The mark [6] stands for this setting: IC50 Succinate:quinone reductase (SQR) (complex II), E. multilocularis protoscoleces mitochondria, mean ± SEM, Table 1.
Where [7] appears, read: IC50 against E. multilocularis complex II (SQR), figure legends, supplement.

Like-named read-outs stand apart in the source and are kept apart here.

T1 sequence (O44074 22-282): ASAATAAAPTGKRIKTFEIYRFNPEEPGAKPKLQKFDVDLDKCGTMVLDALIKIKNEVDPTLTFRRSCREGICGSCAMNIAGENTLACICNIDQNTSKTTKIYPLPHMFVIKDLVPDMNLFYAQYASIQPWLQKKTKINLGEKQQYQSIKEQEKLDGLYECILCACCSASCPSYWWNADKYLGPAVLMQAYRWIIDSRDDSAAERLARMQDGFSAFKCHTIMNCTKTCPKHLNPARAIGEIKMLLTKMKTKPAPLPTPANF
T1 sequence (P92506 32-188): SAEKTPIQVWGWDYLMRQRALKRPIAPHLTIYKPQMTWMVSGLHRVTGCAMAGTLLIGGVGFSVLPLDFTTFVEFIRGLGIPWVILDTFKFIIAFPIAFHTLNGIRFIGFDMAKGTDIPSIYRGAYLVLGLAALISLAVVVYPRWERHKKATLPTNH
T1 sequence (P92507 26-156): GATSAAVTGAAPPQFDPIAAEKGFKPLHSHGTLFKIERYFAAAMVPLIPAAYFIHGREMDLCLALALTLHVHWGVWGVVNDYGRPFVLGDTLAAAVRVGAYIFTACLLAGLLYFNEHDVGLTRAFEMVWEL
T1 sequence (Q33862 19-645 partner): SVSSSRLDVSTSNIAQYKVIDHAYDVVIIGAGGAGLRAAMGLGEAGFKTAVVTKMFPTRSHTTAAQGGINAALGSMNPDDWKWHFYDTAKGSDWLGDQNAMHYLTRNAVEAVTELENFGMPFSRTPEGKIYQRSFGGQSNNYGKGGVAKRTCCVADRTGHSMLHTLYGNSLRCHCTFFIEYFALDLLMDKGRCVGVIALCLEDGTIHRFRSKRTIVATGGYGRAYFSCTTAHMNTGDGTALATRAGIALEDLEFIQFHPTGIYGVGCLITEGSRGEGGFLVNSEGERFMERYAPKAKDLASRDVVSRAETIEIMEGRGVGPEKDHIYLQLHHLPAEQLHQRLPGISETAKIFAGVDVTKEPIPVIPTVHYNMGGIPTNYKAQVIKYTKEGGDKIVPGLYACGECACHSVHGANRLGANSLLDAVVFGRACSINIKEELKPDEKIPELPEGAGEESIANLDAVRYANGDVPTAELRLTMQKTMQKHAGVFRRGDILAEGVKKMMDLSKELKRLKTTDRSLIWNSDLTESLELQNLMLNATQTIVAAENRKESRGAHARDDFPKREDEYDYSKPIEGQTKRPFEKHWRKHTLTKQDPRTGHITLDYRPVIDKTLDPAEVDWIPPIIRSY
complex I and III (NADH:cytochrome c reductase), sequence (Q9TE80 entry or part of it): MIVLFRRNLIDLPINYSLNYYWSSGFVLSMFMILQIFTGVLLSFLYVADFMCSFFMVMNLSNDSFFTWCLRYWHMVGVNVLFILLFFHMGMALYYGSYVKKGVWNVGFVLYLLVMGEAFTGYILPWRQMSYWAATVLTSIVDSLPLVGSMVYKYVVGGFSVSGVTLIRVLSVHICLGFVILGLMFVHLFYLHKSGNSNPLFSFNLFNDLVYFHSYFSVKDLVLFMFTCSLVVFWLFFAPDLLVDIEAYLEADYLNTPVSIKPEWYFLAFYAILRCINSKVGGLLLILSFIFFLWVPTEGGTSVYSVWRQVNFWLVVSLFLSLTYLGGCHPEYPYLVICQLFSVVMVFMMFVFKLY
complex I and III (NADH:cytochrome c reductase), sequence (Q9GP40 whole entry, further chain): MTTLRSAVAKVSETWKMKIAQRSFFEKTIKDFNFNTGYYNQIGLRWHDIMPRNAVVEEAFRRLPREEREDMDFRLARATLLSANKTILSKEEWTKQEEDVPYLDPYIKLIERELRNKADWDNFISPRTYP
complex I and III (NADH:cytochrome c reductase), sequence (Q9TE76 entry or part of it, further chain): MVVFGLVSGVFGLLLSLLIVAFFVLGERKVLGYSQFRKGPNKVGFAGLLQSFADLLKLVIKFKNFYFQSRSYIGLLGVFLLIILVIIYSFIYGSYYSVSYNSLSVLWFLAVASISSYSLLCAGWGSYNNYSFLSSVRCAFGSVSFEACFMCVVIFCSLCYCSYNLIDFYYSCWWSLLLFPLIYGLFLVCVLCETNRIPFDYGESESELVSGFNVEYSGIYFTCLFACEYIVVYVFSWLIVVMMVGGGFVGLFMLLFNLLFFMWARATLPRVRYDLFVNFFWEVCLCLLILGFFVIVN
complex II (succinate:quinone reductase, SQR), sequence (A0A1Z4EAV8 entry or part of it): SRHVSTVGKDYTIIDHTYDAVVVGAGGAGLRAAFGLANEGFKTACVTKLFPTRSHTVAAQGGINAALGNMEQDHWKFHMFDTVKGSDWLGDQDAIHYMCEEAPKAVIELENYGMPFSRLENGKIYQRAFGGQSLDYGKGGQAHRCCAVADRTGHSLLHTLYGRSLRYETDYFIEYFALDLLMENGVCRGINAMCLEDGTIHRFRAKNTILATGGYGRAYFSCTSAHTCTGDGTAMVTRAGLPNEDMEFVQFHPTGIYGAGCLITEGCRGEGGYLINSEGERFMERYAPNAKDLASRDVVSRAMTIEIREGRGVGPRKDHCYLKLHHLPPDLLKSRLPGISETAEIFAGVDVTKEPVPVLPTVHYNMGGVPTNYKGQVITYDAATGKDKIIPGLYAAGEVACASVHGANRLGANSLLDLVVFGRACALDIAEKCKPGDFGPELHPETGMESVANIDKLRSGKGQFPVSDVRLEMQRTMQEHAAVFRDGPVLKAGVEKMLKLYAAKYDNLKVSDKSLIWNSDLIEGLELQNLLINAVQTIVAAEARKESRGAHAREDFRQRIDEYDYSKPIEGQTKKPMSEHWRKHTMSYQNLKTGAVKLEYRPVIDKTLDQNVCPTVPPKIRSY
complex II (succinate:quinone reductase, SQR), sequence (A0A1Z4EAX1 entry or part of it): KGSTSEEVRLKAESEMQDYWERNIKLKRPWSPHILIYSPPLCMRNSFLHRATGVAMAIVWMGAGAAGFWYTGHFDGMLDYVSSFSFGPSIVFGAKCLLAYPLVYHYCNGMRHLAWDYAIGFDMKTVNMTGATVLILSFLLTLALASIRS
complex II (succinate:quinone reductase, SQR), sequence (A0A1Z4EAX0 entry or part of it): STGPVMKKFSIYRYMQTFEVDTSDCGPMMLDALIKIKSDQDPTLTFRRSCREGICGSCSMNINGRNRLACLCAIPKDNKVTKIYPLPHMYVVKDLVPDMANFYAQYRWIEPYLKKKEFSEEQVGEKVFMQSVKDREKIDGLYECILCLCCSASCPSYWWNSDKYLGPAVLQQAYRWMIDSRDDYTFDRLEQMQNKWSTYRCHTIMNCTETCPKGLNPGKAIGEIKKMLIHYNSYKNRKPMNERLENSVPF
complex II (succinate:quinone reductase, SQR), sequence (A0A1Z4EAW8 entry or part of it): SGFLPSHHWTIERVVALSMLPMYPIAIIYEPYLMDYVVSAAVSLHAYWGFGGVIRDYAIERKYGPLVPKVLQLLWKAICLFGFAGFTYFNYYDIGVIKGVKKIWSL

In general, IC50 refers to the point on the concentration scale where inhibition reaches its midpoint. As to `CC(C)(C)c1ccc(CNC(=O)c2ccccc2C(F)(F)F)cc1` [NN23, reference compound], the IC50 in assay [1] (figure legends, supplement, read-out: IC50 against E. multilocularis complex II (SQR)) was more than 20000 nM; at A. suum complex II (A. suum mitochondrial fraction, read-out: IC50 against A. suum complex II), 5 nM.
On to `CC(=O)c1cc(Cl)c(O)c(C/C=C(\C)CCC=C(C)C)c1O` [Compound D5], for which the “day of complete elimination of protoscoleces” value is not above 6 days in assay [2] (aerobic culture) and not above 5 days in assay [2] (anaerobic culture (O2 <0.3%)). Also, the “antiparasitic effect on protoscoleces in culture assay” value (shortened to “antiparasitic effect on protoscoleces”) in assay [2] is given as “strong antiparasitic effect”. Also, the IC50 was more than 50000 nM in assay [3]; 221 ± 44 nM in assay [4]; 47 ± 11 nM in assay [1] (IC50, inhibition of E. multilocularis SQR, Table 2, substitutions on the benzene group, mean ± SEM); 47 ± 11 nM in assay [1] (setting [6]); 11000 nM at A. suum complex II. The “fold less potent inhibition of A. suum complex II than of E. multilocularis complex II” value at A. suum complex II (ratio of IC50 A. suum / E. multilocularis) came out at 234 fold.
Turning to `CC(C)=CCC/C(C)=C/CC/C(C)=C/Cc1c(O)c(Cl)c(C)c(C=O)c1O` [Compound D2], the figures for the “day of complete elimination of protoscoleces” value in assay [2] (aerobic culture) and in assay [2] (anaerobic culture (O2 <0.3%)) were not above 4 days and 6 days, respectively. In assay [2], the “antiparasitic effect on protoscoleces” value is listed as “strong antiparasitic effect”. Further, the half-maximal inhibitory concentration (IC50) in assay [3] was more than 50000 nM; in assay [4], 8 ± 2 nM; in assay [1] (IC50, E. multilocularis SQR inhibition, Table 5, furanone ring-substituted derivatives, mean ± SEM), 309 ± 21 nM; in assay [1] (setting [6]), 309 ± 21 nM; in assay [1] (setting [7]), 300 nM. In assay [4] (IC50 complex II 0.309 μM vs complex III 0.008 μM), the “selectivity complex III over complex II (aerobic vs anaerobic)” value turned out to be 38 fold.
`O=C1C(O)=C([C@H]2CC[C@H](c3ccc(Cl)cc3)CC2)C(=O)c2ccccc21` [ATV, Atovaquone, reference compound]: the IC50 in assay [5] was determined as 2 nM; in assay [1] (setting [7]), 690 nM.
As for `CC(=O)c1cc(Cl)c(O)c(C/C=C(\C)CC/C=C(\C)CCC=C(C)C)c1O` [Compound D4], the “elimination of protoscoleces on day 7” value in assay [2] (aerobic culture, day 7) turned out to be 34%. Moreover, the “elimination of protoscoleces by day 7” value in assay [2] (anaerobic culture (O2 <0.3%), day 7) is recorded as 65%. In addition, the “antiparasitic effect on protoscoleces” value in assay [2] is on record as “weak”. The IC50 in assay [3] is more than 50000 nM; in assay [4], 109 ± 9 nM; in assay [1] (setting [6]), 37 ± 8 nM.
